According to US6893834B2, “Assay for kinases and phosphatases” (Promega Corporation, priority 2000, dated 2005):

What was measured:
PI-5K = assay: Reaction specificity of PI-5K toward lipid substrates; type: biochemical; conditions: purified PI-5K 125 ng/ml, 15 min, room temperature; FIG. 9
Experimental: FIG. 9: Reaction specificity toward lipid substrates. Reactions according to the subject invention were performed with purified PI4P-5K (250 ng/ml) for 45 min at room temperature using 1 μg of different lipid substrates: PI3,4P (lane 1); PI3,5P2 (lane 2) and PI4,5P2 (lane 3). In addition to lipid substrates, all samples contained 10 μg of PS loaded on the membrane.
Lipids, 10 μg of PI4,5P2+20 μg of PS, were dissolved in chloroform:methanol (2:1) and loaded onto “SAM2”-brand membranes for PI-3K activity measurements. Likewise, 10 μg of PI4P was loaded onto “SAM2”-brand membranes for PI4P-5K activity measurements. The membranes were air dried and a reaction mixture containing 50 mM HEPES/NaOH, pH7.5, 100 mM NaCl, 10 mM MgCl2, 20 ng partially-purified PI-3K or 10 ng of purified PI4P-5K, 50 μM ATP supplemented with 1 μCi of γ-^32P-ATP was added onto the membrane containing the immobilized lipids.
Following incubation at room temperature, the reactions were stopped with 7.5 M guanidine chloride and the membranes were washed with 2M NaCl, followed by 2 M NaCl/1% H3PO4. The washed membranes were dried and subjected to scintillation counting.
This Example illustrates the reaction specificity toward lipid substrates. Here, a reaction was performed with purified PI-5K (125 ng/ml) for 15 min at room temperature using different lipid substrates: PI3,4P (lane 1); PI3,5P (lane 2) and PI4,5P2 (Lane 3).

3T3 NIH cells = assay: PI-3K activity associated with activated receptor in PDGF-stimulated 3T3 NIH cells; type: cell-based; conditions: PDGF 50 ng/ml, 5 min, 37° C.; reaction 60 min, PI4,5P2 (10 μg) + PS (20 μg); FIG. 3
Experimental: FIG. 3: Detection of PI-3K activity associated with activated receptor. 3T3NIH cells (5×10^7 cells) were treated without (lane 1) or with (lane 2) PDGF (50 ng/ml for 5 min at 37° C.) and PI-3K was co-immunoprecipitated using anti-phosphotyrosine specific antibodies. The PI-3K reactions were run for 60 min using PIP2 (10 μg)+PS (20 μg) as substrates.
In resting cells, PI-3K is located in the cytosol. However, upon cell stimulation, the enzyme is recruited to the plasma membrane where it is associated with particular receptors and is involved in further propagation of the signal. This example illustrates that the described method allows to measure PI-3K activity associated with activated receptor. 3T3 NIH cells (0.5×10^7 cells) were starved oveminght in serum-free medium. PDGF (50 ng/ml) was added to the starved cells and the induction was carried out for 5 min at 37° C. Following the PDGF induction, cells were washed once with PBS while on the plate, scraped into PBS, transferred to a centrifuge tube, pelleted by centrifugation. The cell pellet was lysed and activated receptor-PI-3K complex was iminunoprecipitated using anti-phosphotyrosine specific antibodies. The PI-3K reaction was run for 60 min using PI4,5P2 (10 μg) as substrate, immobilized on “SAM2”-brand membranes, together with 20 μg of carrier lipid (PS).

Substance	substrate for PI-5K (phosphorylation, CPM) (PI-5K)	PI-3K activity co-immunoprecipitated with anti-phosphotyrosine antibodies (3T3 NIH cells)
D-myo-phosphatidylinositol 4,5-bisphosphate [PI4,5P]	not substrates	–
D-myo-phosphatidylinositol 3,4-bisphosphate [PI3,4P]	suitable substrate	–
D-myo-phosphatidylinositol 3,5-bisphosphate [PI3,5P]	not substrates	–
platelet-derived growth factor [PDGF]	–	increase in PI-3K activity
